The text below walks through data of patent US8975411B2, “Therapeutic agent for neurological diseases” (Neugen Pharma Inc., priority 2010, dated 2015).

≈ marks a conversion by molar mass, not a printed value.

Data set [1] in a line: Evaluation of blood-brain barrier permeability (concentration in brain after oral administration, HPLC). The data set is classed as in vivo. Particulars: male C57BL/6N mice, 100 mg/kg once orally, fasting. As for the experimental part:
For evaluation of blood-brain barrier permeability, pharmacokinetics (the concentration in brain) in mice was analyzed. In the test, male C57BL/6N mice (at 8 weeks of age) were used. Each compound was suspended in 0.5% sodium carboxymethylcellulose (CMC-Na). The dosage amount was 100 mg/kg per body weight of each mouse. Each compound was administered once orally under fasting conditions. At the time points of 30 minutes and one hour after administration, blood was collected from the heart of each mouse. Subsequently, perfusion was performed using physiological saline containing 10% heparin and thereafter the brain was removed. Serum was obtained by centrifuging the blood sample and brain was lyophilized with liquid nitrogen, both of which were stored at −80° C. until use.
Next, as a pre-treatment for HPLC analysis, deproteinization treatment was performed. Acetonitrile was added to the brain sample and homogenization treatment was performed to grind the brain. The resultant sample was centrifuged (10,000×g, 10 min, 4° C.) and the supernatant was collected, allowed to stand still at −80° C. for 10 minutes, thawed and then centrifuged again (10,000×g, 10 min, 4° C.). The obtained supernatant was dried under vacuum. The vacuum-dried sample was dissolved in a 10 mM phosphate buffer (pH7.0) containing 30-50% acetonitrile, allowed to stand still at −80° C. for 10 minute, thawed again and centrifuged at (10,000×g, 10 min, 4° C.) and the supernatant was collected. Furthermore, filtration treatment by a 0.45 μm filter and centrifugation (10,000×g, 4 min, 4° C.) were performed and subsequently filtration treatment by a 0.22 μm filter and centrifugation (10,000×g, 4 min, 4° C.) were performed. The supernatant was then collected and subjected to HPLC analysis. A standard curve was prepared by using the brain of the same type mouse to which none of the compounds was administered.
(§1) HPLC analysis conditions will be described below.
Column: CAPCELL PAK C18, 4.6 mm I.D.×150 mm (SHISEIDO)
Eluate: 10 mM phosphate buffer/acetonitrile (30-50%)
Dilution solution: 10 mM phosphate
buffer/acetonitrile (30-50%)

Data set [2] relates to Human neuroblastoma SH-SY5Y cells. Put plainly: Oxidative stress-mediated cell death suppressive (AOSCD) activity in differentiated nerve cells, menadione, AlamarBlue. The data set is classed as cell-based. The conditions noted are these: RA-differentiated SH-SY5Y cells, compound 24 hours before menadione, 4 hours oxidative stress treatment, read-out: ED50 (the source's name). Here is the method: A test was performed by using the same compounds as in Test Example 1. Human neuroblastoma SH-SY5Y cells (ATCC, CRL2266 strain) were cultured in DMEM medium (manufactured by Wako Pure Chemical Industries Ltd.) containing 10% FBS, 100 μg/mL streptomycin and 100 U/mL penicillin G. SH-SY5Y cells were suspended in a DMEM/10% FBS medium, seeded in a cell density of 0.75×10^4 cells/well in a 96-well microplate and cultured in the presence of 5% CO2 at 37° C. for 24 hours. Thereafter, the medium was exchanged with DMEM/10% FBS (DMEM/FBS/RA) medium containing 10 μM all-trans-retinoic acid (RA). At the fifth day, each compound was added so as to obtain 2, 4, 6, 8, 10, 20, 30, 40, 50, 60, 80 μM (final concentration) and culture was performed. Note that, in this experiment, a sample in which DMSO alone was added was used as a negative control.
After 24 hours, an oxidative stress agent, menadione, was added so as to obtain a final concentration of 0, 30, 40, 60 and 80 μM and culture was continued in the presence of 5% CO2 at 37° C. (oxidative stress treatment) Cells treated with a 0.1% Triton X-100/DMEM/FBS/RA medium in place of menadione was used as a blank in this assay. After an oxidative stress treatment for 4 hours, the medium was replaced with a medium containing 10% AlamarBlue and culture was performed in the presence of 5% CO2 at 37° C. Twelve hours later, fluorescent was measured at an excitation wavelength of 530 nm/detection wavelength of 580 nm by use of CYTOFLUOR (registered trade mark) Multi-Well Plate Reader Series 4000 to quantify oxidative stress-mediated cell death suppressive (AOSCD) activity. In accordance with a conventional method, ED50 (Effective Dose) (μM) was calculated.
On the technique in general: Resazurin is reduced to fluorescent resorufin, in cell work by metabolically active cells.

Data set [3] can be described thus: Evaluation of solubility in the 1st fluid (pH1.2) of the Japanese pharmacopeia. Particulars: 1st fluid (pH 1.2) of the Japanese Pharmacopeia, pH 1.2, simulated gastric fluid, thermodynamic from solid, 25° C. The data set is classed as physicochemical. As for the experimental part:
Using the same compounds as in Experimental Example 1, solubility in the 1st fluid (pH1.2) of the Japanese pharmacopeia was measured. The 1st fluid of the Japanese Pharmacopeia was prepared by dissolving sodium chloride in hydrochloric acid (7.0 mL) and water and adjusting the total amount to 1000 mL. The 1st fluid of the Japanese Pharmacopeia (0.6 mL) was poured in a tube and a compound was added until a precipitate was observed. Then, the tube was shaken at 25° C. for 24 hours (200 rotations/minute) to obtain a compound solution. The compound solution was added to a 96-well plate to which a 0.22 μm filter (manufactured by Millipore) was set and centrifugally filtrated (2700 rotations/minute, 10 minutes). Thereafter, the concentration of the compound in the filtrate was obtained from the peak area obtained by HPLC analysis. The solution for a calibration curve was prepared by dissolving a compound in DMSO.
as §1
Column: TSKgel ODS-80Tm, 4.6×150 mm (manufactured by Tohso Corporation)
Column temperature: 40° C.
Mobile phase: 20 mM sodium 1-decanesulfonate, 40 mM phosphoric acid, 0.2% trimethylamine/acetonitrile

Data set [4] deals with ALS-SOD1^H46R transgenic mice. The data set can be described thus: In vivo drug efficacy test: vertical pole test (motor function). The conditions noted are these: 21 weeks of age compared with 17 weeks of age, control significantly reduced. Here is the method:
(§2) In this test, ALS-SOD1^H46R transgenic mice carrying and expressing ALS1 pathological SOD1 gene (SOD1^H46R) were used. The mice were housed at 23° C. with a 12 hours light/dark cycle. […] Each compound was dissolved in sterilized water, and subsequently an administration solution was prepared with physiological saline. The dose of each compound was 0.01 mg, 0.1 mg and 1 mg/5 ml/kg per body weight of each individual and the compounds were orally administered once per day until an individual dies (compound-administered group). Mice to which physiological saline (5 ml/kg) alone was administered were used as a control group. As an evaluation method for expression of a neurological sign, a balance beam test (a stainless steel bar of 50 cm in length and 0.9 cm in width) was used.
(§3) Each of the mice was subjected to the test and grade 3 was determined as onset of disease. The motor function of the mice in the compound-administered groups and the control group was evaluated based on a vertical pole test and footprint analysis.
The vertical pole test (stainless steel bar of 50 cm in length and 0.9 cm in width was used) was started when the test mice became 17 weeks of age and carried out once a week. Each mouse was given five trials (noted that a maximum value was 45 cm, and when a mouse reached the vertical ascending distance of 45 cm, the trial was terminated at that point). The maximum value of the 5 trials was defined as motor function value.

Data set [5] relates to ALS-SOD1^H46R transgenic mice. Put plainly: In vivo drug efficacy test: footprint analysis (ambulation). The conditions noted are these: 22 weeks of age compared with 18 weeks of age, control showed abnormal ambulation. Here is the method:
as §2, §3
Mice of the administered groups and the control group were subject to footprint analysis at 18 weeks and 22 weeks of age. Blue ink and red ink were applied respectively to the front and hind paws of the test mouse and the mouse was then allowed to walk on paper. From the footprint, irregularity of walking was observed. Data was analyzed by use of GraphPad Prism 5 and SPSS 17.0.

In data set [6] the test system is ALS-SOD1^H46R transgenic mice. Put plainly: In vivo drug efficacy test: survival period after the onset of disease. Particulars: for survival period after the onset of disease: control 33.4±3.2 days; for survival benefit versus control group: 0.01, 0.1 and 1 mg/kg orally once per day from onset. As for the experimental part: as §2, §3
[7] abbreviates: 0.1 mg/kg orally once per day from onset.
Where [8] appears, read: 0.01 mg/kg orally once per day from onset.
The mark [9] stands for this setting: 1 mg/kg orally once per day from onset.

Take `Cc1cc(C)c(O[C@H](C)C(=O)Nc2nc(-c3ccccn3)c[nH]2)c(C)c1` [Compound 10, (2R)-2-(mesityloxy)-N-[4-(pyridin-2-yl)-1H-imidazol-2-yl]propanamide]: the “Amount of blood brain barrier permeation” value in data set [1] (0.5 h after administration) is 256 ng/100 μg; in data set [1] (1 h after administration), 225 ng/100 μg. Also, the EC50 in data set [2] is 8 µM. In data set [3], the concentration in solution (solubility at 24 h) came to 7880 µg/mL (≈ 22.5 mM). Further, the “motor function by vertical pole test” value in data set [4] (setting [7]) was “relatively retained”. In data set [5] (setting [7]), the “ambulation by footprint analysis” value is “no significant change of ambulation”. Also, the “survival period after the onset of disease” value (from here on “survival period”) in data set [6] (setting [8]) turned out to be 43.7 ± 7.5 days; in data set [6] (setting [7]) it was 47.7 ± 6.9 days; in data set [6] (setting [9]), 41.8 ± 10.5 days. In data set [6], the “survival benefit versus control group” value is recorded as “significant survival benefit”.

Take `Cc1cc(C)c(OCC(=O)Nc2nc(-c3ccccn3)c[nH]2)c(C)c1` [Compound (Ie), 2-(mesityloxy)-N-[4-(pyridin-2-yl)-1H-imidazol-2-yl]acetamide, reference compound]: the entries for the “Amount of blood brain barrier permeation” value in data set [1] (0.5 h after administration) and in data set [1] (1 h after administration) were 27 ng/100 μg and 8 ng/100 μg, respectively. The EC50 in data set [2] came out at 6 µM. Further, the concentration in solution in data set [3] (solubility at 24 h) came to 610 µg/mL (≈ 1.81 mM).

Regarding `Cc1cc(C)c(O[C@@H](C)C(=O)Nc2nc(-c3ccccn3)c[nH]2)c(C)c1` [Compound 11, (2S)-2-(mesityloxy)-N-[4-(pyridin-2-yl)-1H-imidazol-2-yl]propanamide], the “Amount of blood brain barrier permeation” value in data set [1] (0.5 h after administration) was 478 ng/100 μg; in data set [1] (1 h after administration), 372 ng/100 μg. Moreover, the EC50 in data set [2] stood at 4 µM. Besides, the solubility (commonly the concentration that dissolves in the medium under given conditions) at 24 h in data set [3] is 7980 µg/mL (≈ 22.8 mM).

On to `Cc1cc(C)c(OCC(=O)Nc2nc(-c3ccccn3)cs2)c(C)c1` [Compound (X), 2-(mesityloxy)-N-(4-pyridin-2-yl-1,3-thiazol-2-yl)acetamide, reference compound], for which the “Amount of blood brain barrier permeation” value in data set [1] (0.5 h after administration) came to 62 ng/100 μg; in data set [1] (1 h after administration) it was 26 ng/100 μg. Besides, the EC50 in data set [2] was 20 µM. In addition, the concentration in solution in data set [3] (solubility at 24 h) came to 30 µg/mL (≈ 0.0849 mM).

For the compound `Cc1cc(C)c(N(C)CC(=O)Nc2nc(-c3ccccn3)c[nH]2)c(C)c1` [Compound 14, 2-[mesityl(methyl)amino]-N-[4-(pyridin-2-yl)-1H-imidazol-2-yl]acetamide], the “Amount of blood brain barrier permeation” value worked out at 519 ng/100 μg in data set [1] (0.5 h after administration) and 370 ng/100 μg in data set [1] (1 h after administration). Further, the EC50 in data set [2] came out at 4 µM. The same compound had a solubility at 24 h in data set [3] of 3070 µg/mL (≈ 8.79 mM). For the same compound, in data set [4] (setting [8]), the “motor function by vertical pole test” value is recorded as “relatively retained”. Besides, the “ambulation by footprint analysis” value in data set [5] (setting [8]) was “no significant change of ambulation”. In addition, the “survival period” value in data set [6] (setting [8]) amounted to 44.5 ± 3.4 days; in data set [6] (setting [7]), 42.2 ± 4.5 days; in data set [6] (setting [9]), 42.5 ± 2.9 days. Besides, the “survival benefit versus control group” value in data set [6] was “significant survival benefit”.

Take `Cc1cc(C)c(OC(C)(C)C(=O)Nc2nc(-c3ccccn3)c[nH]2)c(C)c1` [Compound 12, 2-(mesityloxy)-2-methyl-N-[4-(pyridin-2-yl)-1H-imidazol-2-yl]propanamide]: the “Amount of blood brain barrier permeation” value in data set [1] (0.5 h after administration) amounted to 258 ng/100 μg; in data set [1] (1 h after administration), 133 ng/100 μg. Further, the EC50 in data set [2] is 4 µM. The solubility at 24 h in data set [3] is 3760 µg/mL (≈ 10.3 mM). In addition, the “motor function by vertical pole test” value in data set [4] (setting [8]) is “relatively retained”. In addition, the “ambulation by footprint analysis” value in data set [5] (setting [8]) was “no significant change of ambulation”. The “survival period” value turned out to be 36.2 ± 4.0 days in data set [6] (setting [8]), 38.8 ± 4.3 days in data set [6] (setting [7]) and 41.0 ± 7.9 days in data set [6] (setting [9]). Moreover, the “survival benefit versus control group” value in data set [6] is on record as “significant survival benefit”.

On to `Cc1cc(C)c(NCC(=O)Nc2nc(-c3ccccn3)c[nH]2)c(C)c1` [Compound 22, 2-(mesitylamino)-N-(4-pyridin-2-yl-1H-imidazol-2-yl)acetamide], for which the figures for the “Amount of blood brain barrier permeation” value in data set [1] (0.5 h after administration) and in data set [1] (1 h after administration) were 108 ng/100 μg and 16 ng/100 μg, respectively. Besides, the EC50 in data set [2] was found to be 21 µM. The compound also had a solubility at 24 h in data set [3] of 1810 µg/mL (≈ 5.4 mM).
